Assay results taken from paper PMC6956804, “Potent antibacterial activity of MSI-1 derived from the magainin 2 peptide against drug-resistant bacteria” (Theranostics, 2020).
Converted amounts (≈) assume the structure as drawn. Peptide text beside a SMILES is read from it.

Experiments:
[1] = test system: murine spleen cells; experiment: Cytotoxicity, MTT; assay type: cell-based; details: 48 h
Experimental: The cytotoxicity of peptides towards murine spleen cells (obtained from healthy murine with aseptic technique) and other eukaryotic cells (HaCaT, GES-1, human L02, B16F10, A549, H460) were determined by routine MTT method. Cells were incubated with serially diluted peptides (final concentrations: 1.563, 3.125, 6.25, 12.5, 25, 50, 100 and 200 μM) for 48 h.

[2] = test system: C57BL/6 mice; experiment: Acute toxicity in mice; assay type: in vivo; details: intraperitoneal
Experimental: C57BL/6 mice (n=6/group) were intraperitoneally injected with MSI-1 (0, 10, 20, 40, 80 and 100 mg/kg/body weight, respectively). Animals were inspected for adverse effects for 30 min, and survival was monitored for 12 h thereafter. The toxicity severity was classified as Malik U et al previously described.

[3] = test system: S. pneumoniae, Amoxicillin-, Cephalexin- and Levofloxacin- resistant clinical isolates; assay type: cell-based
Experimental: (§1) Bacterial strains were purchased from the American Type Culture Collection (ATCC). All clinical strains were isolated from human clinical specimens by the Medical Laboratory Center of Zhongda Hospital (Nanjing, Jiangsu, China). Ndm-1, tem-1, ctx-m-1, shv-1 -carrying bacteria were constructed as previously described. The recombinant bacteria carrying drug-resistant genes were prepared in LB nutrient and induced by IPTG (1 mM) for 4 h before text. Other bacterial strains were respectively prepared in MHB and Columbia Blood Agar Base.
(§2) A standard micro-broth serial dilution assay was used to measure MIC of peptides. MIC was obtained by a microplate reader at 600 nm. MBC was determined as previously described.

[4] = test system: P. aeruginosa, Penicillin-, Imipenem- and Ceftazidime- resistant clinical isolates; assay type: cell-based
Experimental: as §1, §2

[5] = test system: E. coli BL21(DE3)-NDM-1 (ndm-1-carrying recombinant E. coli); assay type: cell-based
Experimental: as §1, §2

[6] = test system: E. coli, Penicillin-, Imipenem- and Ceftazidime- resistant clinical isolates; assay type: cell-based
Experimental: as §1, §2

[7] = test system: K. pneumonia, Penicillin-, Imipenem- and Ceftazidime- resistant clinical isolates; assay type: cell-based
Experimental: as §1, §2

[8] = test system: S. epidermidis, Amoxicillin-, Cephalexin- and Levofloxacin- resistant clinical isolates; assay type: cell-based
Experimental: as §1, §2

[9] = test system: S. pyogenes, Penicillin-, Erythromycin- and Levofloxacin- resistant clinical isolates; assay type: cell-based
Experimental: as §1, §2

[10] = test system: S. aureus, Amoxicillin-, Cephalexin- and Levofloxacin- resistant clinical isolates; assay type: cell-based
Experimental: as §1, §2

[11] = test system: Helicobacterpylori SS1; assay type: cell-based; details: Helicobacterpylori SS1
Experimental: as §1, §2

[12] = test system: MRSA, Methicillin-resistant clinical isolates; assay type: cell-based, Staphylococcus aureus
Experimental: as §1, §2

CC[C@H](C)[C@H](NC(=O)CN)C(=O)N[C@@H](Cc1c[nH]c2ccccc12)C(=O)N[C@@H](CCCCN)C(=O)N[C@@H](Cc1ccccc1)C(=O)N[C@@H](CC(C)C)C(=O)N[C@@H](CCCCN)C(=O)N[C@@H](CCCCN)C(=O)N[C@@H](C)C(=O)N[C@@H](CCCCN)C(=O)N[C@@H](CCCCN)C(=O)N[C@@H](Cc1ccccc1)C(=O)N[C@@H](Cc1c[nH]c2ccccc12)C(N)=O [MSI-3] (H-GIWKFLKKAKKFW-NH2)
effect on the survival of mouse spleen cells compared with the parent peptide [1]: significantly higher | deaths ([2]; 100 mg/kg): some of the mice in the MSI-3-treated group died | adverse effects at approximately 5 min post injection ([2]; dose of peptide above 40 mg/kg, n=6/group): displayed narrowing of the eyes, one mouse was crouching and cuddling, and the other mouse showed convulsions

CC[C@H](C)[C@H](NC(=O)CN)C(=O)NCC(=O)N[C@@H](C)C(=O)N[C@H](C(=O)N[C@@H](CC(C)C)C(=O)N[C@@H](CCCCN)C(=O)N[C@H](C(=O)N[C@@H](CC(C)C)C(=O)N[C@H](C(=O)N[C@H](C(=O)NCC(=O)N[C@@H](CC(C)C)C(=O)N1CCC[C@H]1C(=O)N[C@@H](C)C(=O)N[C@@H](CC(C)C)C(=O)N[C@H](C(=O)N[C@@H](CO)C(=O)N[C@@H](Cc1c[nH]c2ccccc12)C(=O)N[C@H](C(=O)N[C@@H](CCCCN)C(=O)N[C@@H](CCCNC(=N)N)C(=O)N[C@@H](CCCCN)C(=O)N[C@@H](CCCNC(=N)N)C(=O)N[C@@H](CCC(N)=O)C(=O)N[C@@H](CCC(N)=O)C(N)=O)[C@@H](C)CC)[C@@H](C)CC)[C@@H](C)O)[C@@H](C)O)C(C)C)C(C)C [Melittin]
MBC [3]: 16 µg/mL (≈ 5.62 µM) | MIC [3]: 8 µg/mL (≈ 2.81 µM) | MBC [4]: 8 µg/mL (≈ 2.81 µM) | MIC [4]: 4 µg/mL (≈ 1.41 µM) | MBC [5]: 8 µg/mL (≈ 2.81 µM) | MIC [5]: 4 µg/mL (≈ 1.41 µM) | MBC [6]: 8 µg/mL (≈ 2.81 µM) | MIC [6]: 4 µg/mL (≈ 1.41 µM) | MBC [7]: 16 µg/mL (≈ 5.62 µM) | MIC [7]: 8 µg/mL (≈ 2.81 µM) | MBC [8]: 16 µg/mL (≈ 5.62 µM) | MIC [8]: 4 µg/mL (≈ 1.41 µM) | MBC [9]: 16 µg/mL (≈ 5.62 µM) | MIC [9]: 8 µg/mL (≈ 2.81 µM) | MBC [10]: 32 µg/mL (≈ 11.2 µM) | MIC [10]: 8 µg/mL (≈ 2.81 µM) | MBC [11]: 16 µg/mL (≈ 5.62 µM) | MIC [11]: 8 µg/mL (≈ 2.81 µM) | MBC [12]: 8 µg/mL (≈ 2.81 µM) | MIC [12]: 4 µg/mL (≈ 1.41 µM)
